Laboratory results published in publication PMC9790248, “Effects of CYP3A Inhibition, CYP3A Induction, and Gastric Acid Reduction on the Pharmacokinetics of Ripretinib, a Switch Control KIT Tyrosine Kinase Inhibitor” (Clinical Pharmacology in Drug Development, 2022).

Columns and labels:
[1] = Safety assessment (TEAEs), pantoprazole study; type: in vivo, human
Experimental: Participants were confined to the study center on days 1 through 16. On day 1, participants received an oral dose of ripretinib 50 mg under fasting conditions (Figure 1C). On days 8 through 13, participants received pantoprazole 40 mg once daily. On day 14, participants received pantoprazole 40 mg once daily and ripretinib 50 mg simultaneously under fasting conditions.
Relationship to study drug was assessed by the investigator.
Safety data were summarized as n (%).

CYP2C8 [2] = target: T1, CYP2C8 (Homo sapiens, UniProt P10632); assay: Incubation with recombinant human CYPs, substrate disappearance; type: in vitro ADME; details: data on file
T1 sequence (P10632 1-490): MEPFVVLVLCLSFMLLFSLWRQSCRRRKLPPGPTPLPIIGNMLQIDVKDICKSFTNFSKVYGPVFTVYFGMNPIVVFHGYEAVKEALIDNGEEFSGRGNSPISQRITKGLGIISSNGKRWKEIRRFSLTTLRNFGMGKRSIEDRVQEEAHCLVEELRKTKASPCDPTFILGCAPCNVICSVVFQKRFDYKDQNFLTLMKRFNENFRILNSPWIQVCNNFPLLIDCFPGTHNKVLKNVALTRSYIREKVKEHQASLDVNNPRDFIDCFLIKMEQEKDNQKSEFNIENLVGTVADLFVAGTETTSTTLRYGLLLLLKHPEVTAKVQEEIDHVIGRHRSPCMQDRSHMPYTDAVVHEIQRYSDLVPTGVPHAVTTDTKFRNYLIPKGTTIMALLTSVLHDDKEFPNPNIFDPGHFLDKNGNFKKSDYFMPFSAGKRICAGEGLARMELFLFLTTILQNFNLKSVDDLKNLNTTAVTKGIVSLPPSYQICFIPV
Experimental: (§1) In vitro studies with recombinant human cytochrome P450 isoforms (CYPs) and human liver microsomes (with chemical inhibitors) indicate that CYP3A4/5 plays a major role in the metabolism of ripretinib (data on file). When incubated with a panel of recombinant human CYPs, ripretinib (0.1 or 1 μM) disappeared in the presence of CYP3A4 (87.8%–100%), CYP2D6 (97.7%–100%), CYP2C8 (71.2% and 18.9%, respectively), and CYP2C19 (15.7% and 6.7%, respectively).

CYP2C9 = CYP2C9 (Homo sapiens, UniProt P11712); assay: as above; type: in vitro ADME; details: ripretinib 0.1 or 1 μM, data on file
Experimental: as §1

CYP2C19 = CYP2C19 (Homo sapiens, UniProt P33261); assay: as above; type: in vitro ADME; details: data on file
Experimental: as §1

CYP2D6 [3] = target: T2, CYP2D6 (Homo sapiens, UniProt P10635); assay: as above; type: in vitro ADME; details: ripretinib 0.1 or 1 μM, data on file
T2 construct: with human liver microsomes (0.5 mg protein/mL) for 30 minutes; from tissue; host or cells: human liver microsomes
Experimental: as §1

CYP3A4 = CYP3A4 (Homo sapiens, UniProt P08684); assay: as above; type: in vitro ADME; details: ripretinib 0.1 or 1 μM, data on file
Experimental: as §1

CYP1A2 = target: T3, CYP1A2 (Homo sapiens, UniProt P05177); assay: as above; type: in vitro ADME; details: ripretinib 0.1 or 1 μM, data on file
T3 sequence (P05177 1-516): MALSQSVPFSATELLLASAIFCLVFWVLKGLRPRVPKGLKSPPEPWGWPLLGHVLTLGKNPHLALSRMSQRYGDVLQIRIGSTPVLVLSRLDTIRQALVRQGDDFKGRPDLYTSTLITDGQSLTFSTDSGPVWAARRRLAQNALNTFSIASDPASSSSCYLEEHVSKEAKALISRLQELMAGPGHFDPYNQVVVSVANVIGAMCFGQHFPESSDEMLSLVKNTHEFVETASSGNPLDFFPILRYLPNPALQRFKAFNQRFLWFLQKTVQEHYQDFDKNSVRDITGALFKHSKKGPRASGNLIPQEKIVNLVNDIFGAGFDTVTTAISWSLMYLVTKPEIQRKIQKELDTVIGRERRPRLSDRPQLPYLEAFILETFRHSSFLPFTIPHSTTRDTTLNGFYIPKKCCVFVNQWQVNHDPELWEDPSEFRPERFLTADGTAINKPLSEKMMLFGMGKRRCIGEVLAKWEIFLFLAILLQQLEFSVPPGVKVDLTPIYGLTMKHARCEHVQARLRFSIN
Experimental: as §1

[4] = Stability in human plasma (K2EDTA), bioanalytical validation; type: in vitro ADME; details: with or without concomitant medications
Experimental: Following the bioanalytical method validation guidance, the analytical method was validated to verify that the assay was a robust and reliable measurement of ripretinib and DP‐5439 in human plasma with dipotassium ethylenediaminetetraacetic acid (K2EDTA) as the anticoagulant. The linear range of method was 2.00–1000 ng/mL for both ripretinib and DP‐5439. The coefficient of variation (CV%) (precision) for intra‐ and interassay at each quality control (QC) level was ≤15.0% (≤20.0% at the LLOQ QC level: 2 ng/mL for both ripretinib and DP‐5439). The mean % Bias (accuracy) at each QC level was within ±15.0% (±20.0% at the LLOQ QC level) from its respective nominal concentration.

CYP2C8 [5] = target: T1, CYP2C8; assay: Human liver microsomes with chemical inhibitors; type: in vitro ADME; details: metabolism-dependent inhibitor gemfibrozil glucuronide
Experimental: as §1

CYP3A4/5 = assay: Human liver microsomes with chemical inhibitors; type: in vitro ADME
Experimental: as §1

CYP2D6 [6] = target: T2, CYP2D6; assay: Human liver microsomes with chemical inhibitors; type: in vitro ADME
Experimental: as §1

Solubility = type: physicochemical
[7] = cited from earlier work
[8] = 20 mg once daily up to 150 mg once daily

T2 sequence (P10635 whole entry): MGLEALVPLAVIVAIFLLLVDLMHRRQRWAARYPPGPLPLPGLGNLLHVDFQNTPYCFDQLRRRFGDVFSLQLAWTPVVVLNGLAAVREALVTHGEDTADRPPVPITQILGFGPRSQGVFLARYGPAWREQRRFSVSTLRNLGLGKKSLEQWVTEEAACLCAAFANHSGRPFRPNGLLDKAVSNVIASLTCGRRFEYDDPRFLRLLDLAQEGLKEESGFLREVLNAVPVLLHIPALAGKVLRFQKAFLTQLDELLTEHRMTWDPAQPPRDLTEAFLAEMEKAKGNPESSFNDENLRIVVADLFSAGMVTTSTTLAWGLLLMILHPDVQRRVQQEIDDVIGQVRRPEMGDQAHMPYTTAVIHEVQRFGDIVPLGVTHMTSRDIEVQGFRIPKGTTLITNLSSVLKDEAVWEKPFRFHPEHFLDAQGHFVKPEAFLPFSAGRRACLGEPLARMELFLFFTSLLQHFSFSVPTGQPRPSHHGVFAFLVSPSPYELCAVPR
Chain of CYP2C19 (P33261 whole entry): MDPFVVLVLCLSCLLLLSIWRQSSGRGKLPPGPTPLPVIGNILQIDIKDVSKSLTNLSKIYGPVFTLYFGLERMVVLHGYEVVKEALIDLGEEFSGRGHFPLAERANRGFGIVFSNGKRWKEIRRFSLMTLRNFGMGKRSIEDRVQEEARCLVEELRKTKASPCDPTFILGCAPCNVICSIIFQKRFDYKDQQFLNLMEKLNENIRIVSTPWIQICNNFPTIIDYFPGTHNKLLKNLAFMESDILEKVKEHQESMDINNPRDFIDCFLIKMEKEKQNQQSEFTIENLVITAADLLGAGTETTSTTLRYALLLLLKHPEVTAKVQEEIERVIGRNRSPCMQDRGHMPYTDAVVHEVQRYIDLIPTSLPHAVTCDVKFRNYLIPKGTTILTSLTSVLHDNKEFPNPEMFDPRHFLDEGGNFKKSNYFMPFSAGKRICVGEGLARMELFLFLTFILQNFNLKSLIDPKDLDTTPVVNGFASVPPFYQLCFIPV
Chain of CYP2C9 (P11712 whole entry): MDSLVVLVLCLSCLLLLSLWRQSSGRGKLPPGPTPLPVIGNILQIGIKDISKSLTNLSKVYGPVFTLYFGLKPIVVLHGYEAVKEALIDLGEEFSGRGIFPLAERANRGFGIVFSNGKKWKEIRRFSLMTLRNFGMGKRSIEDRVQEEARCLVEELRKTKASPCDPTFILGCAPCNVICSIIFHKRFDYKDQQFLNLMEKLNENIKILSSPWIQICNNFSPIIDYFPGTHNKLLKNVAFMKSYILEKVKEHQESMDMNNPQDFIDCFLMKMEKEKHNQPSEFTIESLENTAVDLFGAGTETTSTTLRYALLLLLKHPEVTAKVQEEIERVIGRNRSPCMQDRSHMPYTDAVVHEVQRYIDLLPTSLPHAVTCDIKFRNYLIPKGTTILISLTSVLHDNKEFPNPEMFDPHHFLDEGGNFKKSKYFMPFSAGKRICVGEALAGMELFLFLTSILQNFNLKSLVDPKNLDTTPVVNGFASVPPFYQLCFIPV
Chain of CYP3A4 (P08684 whole entry): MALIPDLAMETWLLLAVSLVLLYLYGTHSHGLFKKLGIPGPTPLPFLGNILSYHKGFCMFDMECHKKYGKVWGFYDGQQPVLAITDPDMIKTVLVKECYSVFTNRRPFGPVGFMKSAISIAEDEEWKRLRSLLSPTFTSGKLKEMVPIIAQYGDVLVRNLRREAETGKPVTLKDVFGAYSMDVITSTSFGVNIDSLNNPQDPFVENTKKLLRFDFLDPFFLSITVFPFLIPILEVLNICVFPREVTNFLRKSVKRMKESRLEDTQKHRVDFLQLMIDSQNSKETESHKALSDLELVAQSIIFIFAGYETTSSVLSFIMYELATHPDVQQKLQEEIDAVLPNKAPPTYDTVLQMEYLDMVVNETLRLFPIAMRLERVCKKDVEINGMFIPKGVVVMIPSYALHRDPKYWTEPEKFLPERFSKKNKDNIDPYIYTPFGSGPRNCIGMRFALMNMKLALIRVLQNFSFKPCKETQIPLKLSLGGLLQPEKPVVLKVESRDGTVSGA

Structure (SMILES): CCn1c(=O)c(-c2cc(NC(=O)Nc3ccccc3)c(F)cc2Br)cc2cnc(NC)cc21 [Ripretinib]
- Number of TEAEs attributed to study drug ([1]; human, in vivo, 28 days): 42
- Participants with TEAEs attributed to study drug per the investigator ([1]; human, in vivo, 28 days): 19 (76%) n (%)
- Total number of TEAEs ([1]; human, in vivo, 28 days): 63
- Deaths and serious AEs ([1]; pantoprazole study, N = 25): No deaths occurred and no participants experienced SAEs
- Substrate disappearance (CYP2C8 [2]; ripretinib 0.1 μM): 71.2%
- Substrate disappearance (CYP2C8 [2]; ripretinib 1 μM): 18.9%
- Substrate disappearance (CYP2C9): less than 7%
- Substrate disappearance (CYP2C19; ripretinib 0.1 μM): 15.7%
- Substrate disappearance (CYP2C19; ripretinib 1 μM): 6.7%
- Substrate disappearance (CYP2D6 [3]): 97.7%–100%
- Substrate disappearance (CYP3A4): 87.8%–100%
- Substrate disappearance (CYP1A2): less than 7%
- Stability in human plasma at room temperature ([4]; 16 hours at room temperature under normal laboratory lighting): stable
- Stability in human plasma, freeze–thaw ([4]; four cycles of freeze (−20 and −70°C) and thaw (room temperature)): stable
- Inhibition of metabolism of ripretinib on inhibition of CYP2C8 (CYP2C8 [5]): 24%
- Inhibition of metabolism of ripretinib on inhibition of CYP3A4/5 (CYP3A4/5; human liver microsomes, metabolism-dependent inhibitor troleandomycin): 79%
- Role of CYP3A4/5 in metabolism (CYP3A4/5; recombinant human CYPs and human liver microsomes with chemical inhibitors, data on file): major role
- Decrease in metabolism of ripretinib on inhibition of CYP3A4/5 (CYP3A4/5; ripretinib 0.1 μM, human liver microsomes 0.5 mg protein/mL, 30 minutes, with ketoconazole): up to 63%
- Inhibition of metabolism of ripretinib on inhibition of CYP2D6 (CYP2D6 [6]; human liver microsomes, metabolism-dependent inhibitor paroxetine): 16%
- Decrease in metabolism of ripretinib on inhibition of CYP2D6 (CYP2D6 [6]; ripretinib 0.1 μM, human liver microsomes 0.5 mg protein/mL, 30 minutes, with quinidine): ≤ 26%
- Solubility, pH dependence (Solubility): reduced solubility at neutral pH
- Dose proportionality of AUC [7, 8]: generally proportional to dose
- Dose proportionality of Cmax [7, 8]: less than dose proportional
- Time to maximum plasma concentrations ([7]; cancer patients, after a single dose): approximately 4 hours
- Time to reach steady-state conditions ([7]; cancer patients): ≤ 14 days
- Accumulation ratio ([7]; once-daily dosing of 150 mg): approximately 1.7
- Maximum tolerated dose ([7]; patients with cancer, doses up to ripretinib 200 mg twice daily): not reached
- Steady-state PK exposure, 150 mg twice daily compared with 150 mg once daily ([7]; patients): approximately 2 fold
